Measurements taken from patent US7045591B2, “Selective cyclic peptides with melanocortin-4 receptor (MC4-R) agonist activity” (Hoffmann-La Roche Inc., priority 2000, dated 2006).
Bridge positions count the residues as written; N and C are the ends. Square brackets hold non-standard residues; d marks the D form. Peptide text beside a SMILES is read from it. * marks the point of attachment. ξ: configuration not given here. Ac6c(4-Ph-cis-to-N) = N[C@]1(C(=O)O)CC[C@H](c2ccccc2)CC1; Pentanoyl = CCCCC(=O)*; ξK = NCCCCC(N)C(=O)O

Target: T1, MC-4 receptor (Homo sapiens, UniProt P32245)
T1 construct: expressed in transfected cells; host or cells: HEK 293 cells (G418 selected)
T1 sequence (P32245 whole entry): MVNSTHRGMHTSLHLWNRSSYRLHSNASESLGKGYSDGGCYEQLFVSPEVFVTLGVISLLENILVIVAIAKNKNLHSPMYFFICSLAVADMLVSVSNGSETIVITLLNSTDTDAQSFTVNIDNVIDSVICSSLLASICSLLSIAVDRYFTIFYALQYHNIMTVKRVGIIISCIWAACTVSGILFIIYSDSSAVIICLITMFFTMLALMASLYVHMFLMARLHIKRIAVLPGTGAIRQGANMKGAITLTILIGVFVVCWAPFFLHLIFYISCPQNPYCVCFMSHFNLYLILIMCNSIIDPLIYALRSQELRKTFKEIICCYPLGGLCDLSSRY
Assay: Agonist assay: cAMP response in HEK 293 cells transfected with the MC-4 receptor (Biotrak-cAMP SPA)
Format: cell-based
Conditions: HEK 293 cells transfected with MC-4 receptor, cAMP increase; read-out: EC50 for MC4-R agonist activity
Procedure: Description: HEK 293 cells transfected with either the MC-4 receptor or MC-1 receptor were grown in 96 well plates. The cells were stimulated with either 100 nM NDP-αMSH or screening compounds. Cyclic AMP was extracted from the cells and concentrations were determined using a Biotrak-cAMP SPA assay. Agonists were identified as those compounds causing an increase in cAMP.
Cell Culture: HEK 293 cells transfected with either the MC-4 receptor or MC-1 receptor were cultured in 75 cm^2 flasks in D-MEM supplemented with 10% FCS and 500 μg/ml G418. Cells were trypsinized and split 1:3 into 96 well flat-bottom tissue culture treated plates. Cells were stimulated at confluence (day 2-4).
cAMP Response: Compounds serially diluted in 100% DMSO were further diluted 1:200 (2.5 μl compound dilution +500 μl media) in D-MEM containing 10% FBS and 0.1 mM IBMX. For unstimulated cells, 2.5 μl of DMSO was added to 500 μl of media. For NDP-αMSH stimulated cells, 2.5 μl of 20μM NDP-αMSH in 100% DMSO was added to 500μl of media (final conc. 100 nM). Final concentration of DMSO in all wells was 0.5%.
Note: Each sample was run in duplicate on separate plates. […]
cAMP Assay: The extracted samples and all reagents included in the kit were brought to room temperature. […] [125I ]cAMP binding to the SPA beads was determined by counting each plate for 2 minutes on a Packard TopCount™. […]

SMILES: CCCCC(=O)N[C@H]1CC(=O)NCCCCC(C(N)=O)NC(=O)[C@H](Cc2c[nH]c3ccccc23)NC(=O)[C@H](C)NC(=O)[C@@H](Cc2ccccc2)NC(=O)[C@]2(CC[C@H](c3ccccc3)CC2)NC1=O (stereo partly drawn) [Penta-cyclo(Asp-Lys)-Asp-Apc-(D)Phe-Ala-Trp-Lys-NH2] (Pentanoyl-D[Ac6c(4-Ph-cis-to-N)][dF]AW[ξK]-NH2; lactam 1-6)
- EC50: < 500 nM
